Measured values reported in patent publication US11753378B2, “Ketamine compounds and processes for making and using them” (Zevra Therapeutics, Inc., priority 2021, dated 2023).

Key:
[1] = Pharmacokinetics of ketamine and norketamine in plasma after intranasal administration
[2] = Pharmacokinetics of ketamine and norketamine in plasma after oral gavage; details: for norketamine exposure relative to ketamine exposure compared to unconjugated ketamine / release of ketamine compared to unconjugated ketamine: in words; for release of ketamine compared to unconjugated ketamine: administered orally
NMDA receptor = details: cited from earlier work
[3] = analyte ketamine, oral, mean conjugate parameter/mean comparator parameter
[4] = analyte norketamine, oral, mean conjugate parameter/mean comparator parameter
[5] = oral gavage, ketamine % parameter/norketamine % parameter

CCOC(=O)CN(C)C(=O)c1ccc[n+](COC(=O)N(C)C2(c3ccccc3Cl)CCCCC2=O)c1.[Cl-] (racemic) [9b, KTM-CO2CH2-nicotinoyl-Sar(Et)]
% AUC0-1 hr, relative intranasal bioavailability of ketamine vs study comparator (Ketamine HCl) ([1]; analyte ketamine, intranasal, mean conjugate parameter/mean comparator parameter): 68.1% | % Cmax, relative intranasal bioavailability of ketamine vs study comparator (Ketamine HCl) ([1]; analyte ketamine, intranasal, mean conjugate parameter/mean comparator parameter, 10k: time course stopped at 0.5 hours): 62.0% | % AUC0-1 hr, relative intranasal bioavailability of norketamine vs study comparator (Ketamine HCl) ([1]; analyte norketamine, intranasal, mean conjugate parameter/mean comparator parameter): 39.5% | % Cmax, relative intranasal bioavailability of norketamine vs study comparator (Ketamine HCl) ([1]; analyte norketamine, intranasal, mean conjugate parameter/mean comparator parameter, 10k: time course stopped at 0.5 hours): 37.1% | % Exposure Ratio PO:IN, Cmax ([1]; ketamine % parameter PO/ketamine % parameter IN): 2.00 | % Exposure Ratio PO:IN, AUC ([1]; ketamine % parameter PO/ketamine % parameter IN, AUC0-4 h for PO and AUC0-1 h for IN): 1.80 | % AUC0-4 hr, relative oral bioavailability of ketamine vs study comparator (Ketamine HCl) [2, 3]: 123% | % Cmax, relative oral bioavailability of ketamine vs study comparator (Ketamine HCl) [2, 3]: 124% | % AUC0-4 hr, relative oral bioavailability of norketamine vs study comparator (Ketamine HCl) [2, 4]: 62.7% | % Cmax, relative oral bioavailability of norketamine vs study comparator (Ketamine HCl) [2, 4]: 66.9% | % Exposure Ratio Ketamine:Norketamine, AUC0-4 hr [2, 5]: 1.96 | % Exposure Ratio Ketamine:Norketamine, Cmax [2, 5]: 1.85 | norketamine exposure relative to ketamine exposure compared to unconjugated ketamine ([2]; oral): reduced norketamine exposure relative to ketamine exposure

CN[C@]1(c2ccccc2Cl)CCCCC1=O (single isomer, unassigned) [S(+) isomer, reference compound]
NMDA receptor antagonist potency relative to the R(−) isomer (NMDA receptor; background statement): approximately three to four times that of the R(−) isomer

CN(C(=O)OCOC(=O)c1ccncc1)C1(c2ccccc2Cl)CCCCC1=O.Cl (stereo not shown) [3b, Isonicotinate-CH2OCO-KTM HCl]
norketamine exposure relative to ketamine exposure compared to unconjugated ketamine ([2]; oral): reduced norketamine exposure relative to ketamine exposure

CC(C)[C@H](NC(=O)c1ccc[n+](COC(=O)N(C)C2(c3ccccc3Cl)CCCCC2=O)c1)C(=O)O (stereo partly shown) [10d, KTM-CO2CH2-nicotinoyl-Val]
norketamine exposure relative to ketamine exposure compared to unconjugated ketamine ([2]; oral): reduced norketamine exposure relative to ketamine exposure

CC[C@H](C)[C@H](NC(=O)c1ccc[n+](COC(=O)N(C)C2(c3ccccc3Cl)CCCCC2=O)c1)C(=O)O (stereo partly shown) [10e, KTM-CO2CH2-nicotinoyl-Ile]
norketamine exposure relative to ketamine exposure compared to unconjugated ketamine ([2]; oral): reduced norketamine exposure relative to ketamine exposure

CN(C(=O)OC[n+]1cccc(C(=O)N2CCC[C@H]2C(=O)O)c1)C1(c2ccccc2Cl)CCCCC1=O (stereo partly shown) [10f, KTM-CO2CH2-nicotinoyl-Pro]
norketamine exposure relative to ketamine exposure compared to unconjugated ketamine ([2]; oral): reduced norketamine exposure relative to ketamine exposure

CN(C(=O)OC[n+]1cccc(C(=O)N[C@@H](CCCCN)C(=O)O)c1)C1(c2ccccc2Cl)CCCCC1=O (stereo partly shown) [10g, KTM-CO2CH2-nicotinoyl-Lys]
release of ketamine compared to unconjugated ketamine [2]: extended or delayed release

CN(C(=O)OC[n+]1cccc(C(=O)N[C@@H](CCC(N)=O)C(=O)O)c1)C1(c2ccccc2Cl)CCCCC1=O (stereo partly shown) [10k, KTM-CO2CH2-nicotinoyl-Gln]
norketamine exposure relative to ketamine exposure compared to unconjugated ketamine ([2]; oral): reduced norketamine exposure relative to ketamine exposure

CSCC[C@H](NC(=O)c1ccc[n+](COC(=O)N(C)C2(c3ccccc3Cl)CCCCC2=O)c1)C(=O)O (stereo partly shown) [10s, KTM-CO2CH2-nicotinoyl-Met]
norketamine exposure relative to ketamine exposure compared to unconjugated ketamine ([2]; oral): reduced norketamine exposure relative to ketamine exposure

CN(CC(=O)O)C(=O)c1cc[n+](COC(=O)N(C)C2(c3ccccc3Cl)CCCCC2=O)cc1 (stereo not shown) [11b, KTM-CO2CH2-isonicotinoyl-Sar]
release of ketamine compared to unconjugated ketamine [2]: extended or delayed release | norketamine exposure relative to ketamine exposure compared to unconjugated ketamine ([2]; oral): reduced norketamine exposure relative to ketamine exposure

CC(C)[C@H](NC(=O)c1ccc[n+](COC(=O)N(C)[C@]2(c3ccccc3Cl)CCCCC2=O)c1)C(=O)O [S-10d, (S)-KTM-CO2CH2-nicotinoyl-Val]
norketamine exposure relative to ketamine exposure compared to unconjugated ketamine ([2]; oral): reduced norketamine exposure relative to ketamine exposure

NC1(c2ccccc2Cl)CCCCC1=O (stereo not shown) [norketamine]
NMDA receptor antagonist potency compared to ketamine (NMDA receptor; statement in words): less potent antagonist
